Measurements as given in patent US20100240537A1, “Substituted 6-(alkylbenzylamino)purine derivatives for use as cytokinin receptor antagonists and preparations containing these derivatives” (priority 2007, published 2010).

Columns and labels:
[1] = system: osteosarcoma cell line HOS; assay: Calcein AM cytotoxicity assay, HOS; type: cell-based, human; conditions: Homo sapiens, 72 hours
Text: (§1) Absence of toxic effects against mammalian (especially human) cell lines in a wide concentration range is one of the requirements on compounds intended for use in agriculture. Because toxic compounds negatively influence metabolic processes in cells, many standard cytotoxicity assays are based on measurement of metabolisation rate of various artificial substrates. Resulting product is then quantified e.g. by means of spectrometry. The assays can be easily modified for use in 96-well plates. For evaluation of cytotoxic effect of the novel substituted 6-(alkylbenzylamino)purine derivatives of this invention, a microtiter assay based on quantification of metabolisation of Calcein AM was used. The assay is widely used in drug screening programs and in chemosensitivity testing. In live cells, Calcein AM is enzymatically hydrolysed and accumulation of resulting calcein is manifested by green fluorescence.
(§2) The cells were maintained in Nunc/Corning 80 cm^2 plastic tissue culture flasks and cultured in cell culture medium (DMEM with 5 g/l glucose, 2 mM glutamine, 100 U/ml penicillin, 100 μg/ml streptomycin, 10% fetal calf serum and sodium bicarbonate).
(§3) The cell suspensions were prepared and diluted according to the particular cell type and the expected target cell density (10^4 cells per well based on cell growth characteristics) and pippetted (80 μl) into 96-well plates. Inoculates were allowed a pre-incubation period of 24 hours at 37° C., 100% humidity and 5% CO2 for stabilisation. Tested compounds were added in total volume of 20 μl of water at time zero. Usually, test compound was evaluated at six 3-fold dilutions. In routine testing, the highest concentration tested was 100 μM, the eventual changes depended on physico-chemical characteristics of the respective compound. All drug concentrations were tested in triplicates. Incubations of cells with the test compounds lasted for 72 hours at 37° C., in 5% CO2 atmosphere and 100% humidity. At the end of incubation period Calcein AM (Molecular Probes) in PBS was added into final concentration of 1 μg/ml. After another 1 hour of incubation fluorescence (FD) was measured with the Labsystem FIA Reader Fluoroscan Ascent (UK). Growth inhibition (GI) was estimated using the following equitation: GI=(mean FDdrug exposed wells−mean FDblank)/(mean FDcontrol wells−mean FDblank)×100%.

[2] = system: human diploid fibroblasts BJ; assay: Calcein AM cytotoxicity assay, BJ; type: cell-based; conditions: Homo sapiens, Fibroblast, 72 hours
Text: as §1, §2, §3

[3] = system: cytokinin-dependent tobacco callus Nicotiana tabacum L. cv. Wisconsin 38; assay: Cytokinin-dependent tobacco callus bioassay; type: cell-based; conditions: for activity (%) [10^−6 mol · l^−1 BA = 100%]: at concentration with highest activity, n.a. means inactive; for concentration with highest activity: callus fresh weight after four weeks
Protocol: Stimulatory effect of newly prepared derivatives was tested using cytokinin-dependent tobacco callus. The cytokinin-dependent tobacco callus Nicotiana tabacum L. cv. Wisconsin 38 was maintained at 25° C. in darkness on modified MS medium, containing per 1 liter: 4 μmol of nicotinic acid, 2.4 μmol of pyridoxine hydrochloride, 1.2 μmol of thiamine, 26.6 μmol of glycine, 1.37 μmol of glutamine, 1.8 μmol of myo-inositol, 30 g of sucrose, 8 g of agar, 5.37 μmol of NAA and 0.5 μmol of the compound tested. Subcultivation was carried out every three weeks. Fourteen days before the bioassay, the callus tissue was transferred to the media without 6-benzylaminopurine. The biological activity was determined from the increase of the fresh callus weight after four weeks of cultivation. Five replicates were prepared for each concentration of the compound tested and the entire test was repeated twice. […] The compounds to be tested were dissolved in dimethylsulfoxide (DMSO) and the solution brought up to 10^−3M with distilled water. This stock solution was further diluted with the respective media used for the biotest to a concentration ranging from 10^−8M to 10^−4M.
From the obtained data, the concentration with the highest activity was selected for each compound tested. Relative activity of the compound at this concentration was calculated (Table 3). The activity obtained for 10^−6 M of the control substance 6-benzylaminopurine was postulated as 100% biological activity. […]

SMILES	GI50 [1] [µM]	GI50 [2] [µM]	activity (%) [10^−6 mol · l^−1 BA = 100%] [3]	concentration with highest activity [3]
c1ccc(CNc2ncnc3nc[nH]c23)cc1 [6-(benzylamino)purine]	> 100	> 100	100%	10^−6 mol.l^−1
Cc1cccc(CNc2ncnc3nc[nH]c23)c1O [Compound 8, 6-(2-hydroxy-3-methylbenzylamino)purine]	> 50	> 50	2 (±2) %	10^−4 mol.l^−1
Cc1ccc(O)c(CNc2ncnc3nc[nH]c23)c1 [Compound 10, 6-(2-hydroxy-5-methylbenzylamino)purine]	> 100	> 100	35 (±8) %	10^−4 mol.l^−1
